Test results from patent US20090036473A1, “NOVEL QUINAZOLINONE DERIVATIVES AND THEIR MEDICAL USE” (priority 2006, published 2009).

Biological target: T1, human Kv72+3 channels (Homo sapiens, UniProt O43525+O43526)
T1 construct: expressed in transfected cells; host or cells: CHO K1 cells, stably expressing
Test: patch-clamp set-up using CHO K1 cell lines stably expressing the human Kv72+3 channels
Assay type: cell-based
Settings: at a concentration of 3 μM, CHO K1 cells stably expressing human Kv72+3 channels
Protocol: For example, at a concentration of 3 μM, Compound A4 induces an increase in current amplitude in the order 190%, which is an indication of its potent Kv72+3 activating activity.

Structure (SMILES): CC(C)c1nc2ccccc2c(=O)n1NC(=O)[C@@H]1C[C@H]1c1ccccc1 (relative stereo) [Compound A4, (Trans)-2-Phenyl-cyclopropanecarboxylic acid (2-isopropyl-4-oxo-4H-quinazolin-3-yl)-amide]
- increase in current amplitude: ~190%
